In patent US9302999B2, “Substituted triazoles as herbicides” (E. I. DU PONT DE NEMOURS AND COMPANY, priority 2012, dated 2016):
Like-named read-outs stand apart in the source and are kept apart here.

Experiments:
Format in all cases: in vivo
[1] = system: pigweed (Amaranthus retroflexus); test: Test A pre-/postemergence: pigweed; conditions: for pest or weed control at 125 g/ha / pest or weed control at 500 g/ha: Amaranthus retroflexus, 240 h
Outline: (§1)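 Injury is scored visually on a scale where 0 means no effect and 100 complete control, comparing treated with untreated plants after approximately ten greenhouse days. Both preemergence and postemergence applications are made at the same time.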

corn (Zea mays) [2] = test: Test A pre-/postemergence: corn; conditions: for plant injury at 125 g/ha / plant injury at 500 g/ha / Corn plant response rating (crop injury, 0 = no effect, 100 = complete kill) at 125 g/ha / Corn plant response rating (crop injury, 0 = no effect, 100 = complete kill) at 500 g/ha: Zea mays, 240 h; for plant injury at 125 g/ha / plant injury at 500 g/ha: post-emergence, read-out: Corn plant response rating; for Corn plant response rating (crop injury, 0 = no effect, 100 = complete kill) at 125 g/ha / Corn plant response rating (crop injury, 0 = no effect, 100 = complete kill) at 500 g/ha: pre-emergence
Outline: as §1

[3] = system: morningglory (Ipomoea coccinea); test: Test C pre-/postemergence: morningglory; conditions: Preemergence
From the text: (§2) Seeds of plant species selected from blackgrass (Alopecurus myosuroides), bromegrass, downy (downy bromegrass, Bromus tectorum), foxtail, green (green foxtail, Setaria viridis), ryegrass, Italian (Italian ryegrass, Lolium multiflorum), winter wheat (Triticum aestivum), wild oat (Avena fatua), galium (catchweed bedstraw, Galium aparine), bermudagrass (Cynodon dactylon), surinam grass (Brachiaria decumbens), cocklebur (common cocklebur, Xanthium strumarium), corn (Zea mays), large crabgrass (Digitaria sanguinalis), woolly cupgrass (Eriochloa villosa), foxtail, giant (giant foxtail, Setaria faberii), goosegrass (Eleusine indica), johnsongrass (Sorghum halepense), kochia (Kochia scoparia), lambsquarters (Chenopodium album), morningglory (Ipomoea coccinea), nightshade (eastern black nightshade, Solanum ptycanthum), nutsedge, yellow (yellow nutsedge, Cyperus esculentus), pigweed (Amaranthus retroflexus), ragweed (common ragweed, Ambrosia elation), soybean (Glycine max), common (oilseed) sunflower (Helianthus annuus), Russian thistle (Salsola kali) and velvetleaf (Abutilon theophrasti) were planted into a blend of loam soil and sand and treated preemergence with test chemicals formulated in a non-phytotoxic solvent mixture which included a surfactant.
(§3) At the same time, plants selected from these crop and weed species and also barley (winter barley, Hordeum vulgare), canarygrass (Phalaris minor), chickweed (common chickweed, Stellaria media) windgrass (Apera spica-venti) and deadnettle (henbit deadnettle, Lamium amplexicaule) were planted in pots containing Redi-Earth® planting medium (Scotts Company, 14111 Scottslawn Road, Marysville, Ohio 43041) comprising spaghnum peat moss, vermiculite, wetting agent and starter nutrients and treated with postemergence applications of test chemicals formulated in the same manner. Plants ranged in height from 2 to 18 cm (1- to 4-leaf stage) for postemergence treatments.
(§4) Treated plants and controls were maintained in a greenhouse for 13 to 15 days, after which time all species were compared to controls and visually evaluated. Plant response ratings, summarized in Table C, are based on a scale of 0 to 100 where 0 is no effect and 100 is complete control. A dash (-) response means no test result.

[4] = system: nutsedge, yellow (yellow nutsedge, Cyperus esculentus); test: Test C pre-/postemergence: nutsedge, yellow; conditions: Preemergence
From the text: as §2, §3, §4

[5] = system: velvetleaf (Abutilon theophrasti); test: Test C pre-/postemergence: velvetleaf; conditions: Preemergence
From the text: as §2, §3, §4

[6] = system: johnsongrass (Sorghum halepense); test: Test C pre-/postemergence: johnsongrass; conditions: Preemergence
From the text: as §2, §3, §4

corn (Zea mays) [7] = test: Test C pre-/postemergence: corn; conditions: Preemergence
From the text: as §2, §3, §4

soybean (Glycine max) = test: Test C pre-/postemergence: soybean; conditions: Preemergence
From the text: as §2, §3, §4

[8] = system: winter wheat (Triticum aestivum); test: Test C pre-/postemergence: winter wheat; conditions: Preemergence
From the text: as §2, §3, §4

[9] = system: galium (catchweed bedstraw, Galium aparine); test: Test C pre-/postemergence: galium; conditions: Preemergence
From the text: as §2, §3, §4

[10] = system: foxtail, giant (giant foxtail, Setaria faberii); test: Test C pre-/postemergence: foxtail, giant; conditions: Preemergence
From the text: as §2, §3, §4

[11] = post-emergence, Postemergence, 125 g ai/ha, 0 to 100 scale, 0 is no effect, 100 is complete control, read-out: Pigweed plant response rating
[12] = post-emergence, Postemergence, 500 g ai/ha, visual rating on 0 to 100 scale (0 no effect, 100 complete control), approximately ten days, read-out: Pigweed plant response rating
[13] = Postemergence, 125 g ai/ha, 0 to 100 scale, 0 is no effect, 100 is complete control
[14] = Postemergence, 500 g ai/ha, visual rating on 0 to 100 scale (0 no effect, 100 complete control), approximately ten days
[15] = Preemergence, 125 g ai/ha, 0 to 100 scale where 0 is no effect and 100 is complete control
[16] = Preemergence, 500 g ai/ha, 0 to 100 scale (0 no effect, 100 complete control)
[17] = 31 g ai/ha, scale of 0 to 100, 0 is no effect, 100 is complete control
[18] = 62 g ai/ha, scale of 0 to 100, 0 is no effect, 100 is complete control
[19] = 250 g ai/ha, scale 0 to 100, 0 no effect, 100 complete control
[20] = 125 g ai/ha, scale 0 to 100, 0 no effect, 100 complete control
[21] = Postemergence, 500 g ai/ha, 0 to 100 scale, 0 is no effect, 100 is complete control
[22] = 31 g ai/ha, scale 0 (no effect) to 100 (complete control)
[23] = 16 g ai/ha, scale 0 (no effect) to 100 (complete control)

COc1nn(-c2ccc(C(F)(F)F)cc2)nc1Cn1ccc(C(F)(F)F)n1 [Compound 17, 4-methoxy-2-[4-(trifluoromethyl)phenyl]-5-[[3-(trifluoromethyl)-1H-pyrazol-1-yl]methyl]-2H-1,2,3-triazole]
pest or weed control at 125 g/ha [1, 11]: 90%
pest or weed control at 500 g/ha [1, 12]: 100%
pest or weed control at 125 g/ha ([1]; pre-emergence, Preemergence, 125 g ai/ha, 0 to 100 scale (0 no effect, 100 complete control), read-out: Plant response rating, Pigweed): 90%
pest or weed control at 500 g/ha ([1]; pre-emergence, Preemergence, 500 g ai/ha, 0 to 100 scale, 0 is no effect, 100 is complete control, read-out: Plant response rating, Pigweed): 100%
plant injury at 125 g/ha (corn (Zea mays) [2]; [13]): 30%
plant injury at 500 g/ha (corn (Zea mays) [2]; [14]): 30%
Corn plant response rating (crop injury, 0 = no effect, 100 = complete kill) at 125 g/ha (corn (Zea mays) [2]; Preemergence, 125 g ai/ha, 0 to 100 scale (0 no effect, 100 complete control)): 0%
Corn plant response rating (crop injury, 0 = no effect, 100 = complete kill) at 500 g/ha (corn (Zea mays) [2]; Preemergence, 500 g ai/ha, 0 to 100 scale, 0 is no effect, 100 is complete control): 20%

CCc1nn(-c2ccc(C(F)(F)F)cc2)nc1Oc1cccc(OC(F)(F)F)c1 [Compound 125, 4-ethyl-5-[3-(trifluoromethoxy)phenoxy]-2-[4-(trifluoromethyl)phenyl]-2H-1,2,3-triazole]
pest or weed control at 125 g/ha [1, 11]: 90%
pest or weed control at 500 g/ha [1, 12]: 100%
pest or weed control at 125 g/ha ([1]; pre-emergence, Preemergence, 125 g ai/ha, 0 to 100 scale where 0 is no effect and 100 is complete control, read-out: Plant response rating, Pigweed): 70%
pest or weed control at 500 g/ha ([1]; pre-emergence, Preemergence, 500 g ai/ha, 0 to 100 scale (0 no effect, 100 complete control), read-out: Plant response rating, Pigweed): 90%
plant injury at 125 g/ha (corn (Zea mays) [2]; [13]): 20%
plant injury at 500 g/ha (corn (Zea mays) [2]; [14]): 30%
Corn plant response rating (crop injury, 0 = no effect, 100 = complete kill) at 125 g/ha (corn (Zea mays) [2]; [15]): 0%
Corn plant response rating (crop injury, 0 = no effect, 100 = complete kill) at 500 g/ha (corn (Zea mays) [2]; [16]): 0%

Cc1nn(-c2ccc(F)c(C(F)(F)F)c2)nc1Oc1ccnc(C(F)(F)F)c1 [Compound 147]
Plant response rating, Pigweed [1, 13]: 100
Pigweed plant response rating [1, 14]: 100
Plant response rating, Pigweed [1, 15]: 100
Plant response rating, Pigweed [1, 16]: 100
Corn plant response rating (corn (Zea mays) [2]; [13]): 30
Corn plant response rating (corn (Zea mays) [2]; [14]): 40
Plant response rating, Corn (corn (Zea mays) [2]; [15]): 10
Plant response rating, Corn (corn (Zea mays) [2]; [16]): 30
Plant response rating, Morningglory [3, 17]: 30
Plant response rating, Morningglory [3, 18]: 30
Plant response rating, Morningglory [3, 19]: 35
Plant response rating, Nutsedge, Yellow [4, 17]: 0
Plant response rating, Nutsedge, Yellow [4, 18]: 0
Plant response rating, Nutsedge, Yellow [4, 20]: 0
Plant response rating, Nutsedge, Yellow [4, 19]: 15
Plant response rating, Velvetleaf [5, 17]: 25
Plant response rating, Velvetleaf [5, 18]: 55
Plant response rating, Velvetleaf [5, 20]: 60
Plant response rating, Velvetleaf [5, 19]: 100
Plant response rating, Johnsongrass [6, 17]: 40
Plant response rating, Johnsongrass [6, 18]: 55
Plant response rating, Johnsongrass [6, 20]: 95
Plant response rating, Johnsongrass [6, 19]: 98
Plant response rating, Corn (corn (Zea mays) [7]; [17]): 10
Plant response rating, Corn (corn (Zea mays) [7]; [18]): 10
Plant response rating, Corn (corn (Zea mays) [7]; [20]): 25
Plant response rating, Corn (corn (Zea mays) [7]; [19]): 35
Plant response rating, Soybean (soybean (Glycine max); [18]): 20
Plant response rating, Soybean (soybean (Glycine max); [20]): 20
Plant response rating, Soybean (soybean (Glycine max); [19]): 35
Plant response rating, Wheat [8, 18]: 5
Plant response rating, Wheat [8, 20]: 30
Plant response rating, Wheat [8, 19]: 45
Plant response rating, Galium [9, 17]: 100
Plant response rating, Galium [9, 18]: 100
Plant response rating, Galium [9, 20]: 100
Plant response rating, Galium [9, 19]: 100
Plant response rating, Foxtail, Giant [10, 17]: 85
Plant response rating, Foxtail, Giant [10, 18]: 98
Plant response rating, Foxtail, Giant [10, 20]: 100
Plant response rating, Foxtail, Giant [10, 19]: 100

CCOc1nn(-c2ccc(Br)cc2)nc1Cc1ccnc(C(F)(F)F)c1 [Compound 189]
Plant response rating, Pigweed [1, 13]: 100
Pigweed plant response rating [1, 21]: 100
Plant response rating, Pigweed [1, 15]: 100
Plant response rating, Pigweed [1, 16]: 100
Plant response rating, Corn (corn (Zea mays) [2]; [13]): 20
Corn plant response rating (corn (Zea mays) [2]; [21]): 40
Plant response rating, Corn (corn (Zea mays) [2]; [15]): 10
Plant response rating, Corn (corn (Zea mays) [2]; [16]): 10
Plant response rating, Morningglory [3, 22]: 10
Plant response rating, Morningglory [3, 18]: 40
Plant response rating, Morningglory [3, 20]: 60
Plant response rating, Nutsedge, Yellow [4, 23]: 0
Plant response rating, Nutsedge, Yellow [4, 22]: 0
Plant response rating, Nutsedge, Yellow [4, 18]: 0
Plant response rating, Nutsedge, Yellow [4, 20]: 0
Plant response rating, Velvetleaf [5, 23]: 10
Plant response rating, Velvetleaf [5, 22]: 15
Plant response rating, Velvetleaf [5, 18]: 40
Plant response rating, Velvetleaf [5, 20]: 60
Plant response rating, Johnsongrass [6, 23]: 30
Plant response rating, Johnsongrass [6, 22]: 50
Plant response rating, Johnsongrass [6, 18]: 85
Plant response rating, Johnsongrass [6, 20]: 85
Plant response rating, Corn (corn (Zea mays) [7]; [23]): 5
Plant response rating, Corn (corn (Zea mays) [7]; [22]): 5
Plant response rating, Corn (corn (Zea mays) [7]; [18]): 15
Plant response rating, Corn (corn (Zea mays) [7]; [20]): 20
Plant response rating, Soybean (soybean (Glycine max); [23]): 5
Plant response rating, Soybean (soybean (Glycine max); [22]): 5
Plant response rating, Soybean (soybean (Glycine max); [18]): 15
Plant response rating, Soybean (soybean (Glycine max); [20]): 25
Plant response rating, Wheat [8, 23]: 0
Plant response rating, Wheat [8, 22]: 5
Plant response rating, Wheat [8, 18]: 15
Plant response rating, Wheat [8, 20]: 30
Plant response rating, Galium [9, 23]: 80
Plant response rating, Galium [9, 22]: 80
Plant response rating, Galium [9, 18]: 80
Plant response rating, Galium [9, 20]: 95
Plant response rating, Foxtail, Giant [10, 23]: 100
Plant response rating, Foxtail, Giant [10, 22]: 100
Plant response rating, Foxtail, Giant [10, 18]: 100
Plant response rating, Foxtail, Giant [10, 20]: 100
